Results taken from patent US10995359B2, “Method for determining drug-sensitive human cell lines by analysis method in which measurement of activity of two types of protein kinase is used” (NITTO BOSEKI CO., LTD., priority 2015, dated 2021).

Columns and labels:
Assay in all cases: Drug sensitivity assay (cell growth test), sulforhodamine B
Assay type in all cases: cell-based
HCC1143 (BL1) cells = details: Homo sapiens, 72 hours, read-out: inhibition rate (%) by trametinib, classification by grid analysis
Protocol: (§1) Cultured cells were treated with a MEK inhibitor and a PI3K inhibitor in various concentrations, and cell lines sensitive to MEK and PI3K were classified by calculating a cell growth inhibition rate. The culture method and analysis method are as follows.
(§2) Thirteen types of cells used in the present study, HCC38 (BL1), MDA-MB-231 (MSL), DU4475 (IM), HCC1187 (IM), HCC1143 (BL1), HCC1395 (LAR), HCC1937 (BL1), MDA-MB-453 (LAR), HCC70 (BL2), HS578T (MSL), MDA-MB-157 (MSL) and MDA-MB-468 (BL1), were obtained from American type culture collection (ATCC), and SUM185PE (LAR) was obtained from ASTERAND BIOSCIENCE. All the cells belong to triple negative breast cancer (TNBC), and it is known which of six types (BL1, BL2, M, MSL, IM and LAR) these belong to by an existing classification method.
(§3) All the cells were cultured in a medium designated from a source of supply, and 2 mM L-glutamine and 10% fetal bovine serum (FBS) were supplemented.
(§4) Each type of cells was seeded in a 96 well titer plate at 1×10^4 cells/well, and trametinib, an MEK inhibitor (Medchem Express; 0.08, 0.16, 0.31, 0.63, 1.25, 2.5, 5, 10 and 20 μM), and wortmannin, a PI3K inhibitor (Wako Pure Chemical Industries, Ltd.; 0.08, 0.16, 0.31, 0.63, 1.25, 2.5, 5, 10 and 20 μM) were dissolved in Dimethyl Sulfoxide [DMSO] (Wako Pure Chemical Industries, Ltd.) in various concentrations and treated. In addition, the effect on cell growth was examined at 72 hours after the inhibitor by sulforhodamine B assay (manufactured by SIGMA-ALDRICH), and 50 μL of sulforhodamine B solution was added to each well and cells were left at room temperature for an hour for staining. The staining degree of metabolically survival cells was examined by monitoring absorbance at a wavelength of 565 nm using a microtiter plate. The absorbance of cells which were not treated with trametinib and wortmannin (treated with DMSO) was used as a control and defined as 100% to calculate a cell growth inhibition rate.
(§5) The cell lines were classified into 4 types, cell lines sensitive to wortmannin (hereinafter, PA), cell lines sensitive to trametinib (hereinafter, MA), cell lines resistant to wortmannin and trametinib (hereinafter, R), and others (hereinafter, S). In the classification, first the inhibition rate of each drug was calculated in a concentration of 1 μM, and the inhibition rate (%) by trametinib and the inhibition rate (%) by wortmannin were plotted on the X axis and Y axis respectively on a graph.
(§6) The cell lines were classified into 4 types, cell lines sensitive to wortmannin (hereinafter, PA), cell lines sensitive to trametinib (hereinafter, MA), cell lines resistant to wortmannin and trametinib (hereinafter, R), and others (hereinafter, S). In the classification, first the inhibition rate of each drug was calculated in a concentration of 100 nM, and the inhibition rate (%) by trametinib and the inhibition rate (%) by wortmannin were plotted on the X axis and Y axis respectively on a graph.
as §5, with “10” for “1”, “graph. Using a 50% growth inhibition rate as an index of the inhibitive effect of a drug, cells were classified into 4 types by grid analysis.” for “graph.”

HCC1187 (IM) cells = details: Homo sapiens, 72 hours, read-out: inhibition rate (%) by trametinib, classification by grid analysis
Protocol: as §1, §2, §3, §4, §5, §6
as §5, with “10” for “1”, “graph. Using a 50% growth inhibition rate as an index of the inhibitive effect of a drug, cells were classified into 4 types by grid analysis.” for “graph.”

HCC1395 (LAR) cells = details: Homo sapiens, 72 hours, read-out: inhibition rate (%) by trametinib, classification by grid analysis
Protocol: as §1, §2, §3, §4, §5, §6
as §5, with “10” for “1”, “graph. Using a 50% growth inhibition rate as an index of the inhibitive effect of a drug, cells were classified into 4 types by grid analysis.” for “graph.”

HCC1937 (BL1) cells = details: Homo sapiens, 72 hours, read-out: inhibition rate (%) by trametinib, classification by grid analysis
Protocol: as §1, §2, §3, §4, §5, §6
as §5, with “10” for “1”, “graph. Using a 50% growth inhibition rate as an index of the inhibitive effect of a drug, cells were classified into 4 types by grid analysis.” for “graph.”

HCC70 (BL2) cells = details: Homo sapiens, 72 hours, read-out: inhibition rate (%) by trametinib, classification by grid analysis
Protocol: as §1, §2, §3, §4, §5, §6
as §5, with “10” for “1”, “graph. Using a 50% growth inhibition rate as an index of the inhibitive effect of a drug, cells were classified into 4 types by grid analysis.” for “graph.”

HS578T (MSL) cells = details: Homo sapiens, Hs-578T, 72 hours, read-out: inhibition rate (%) by trametinib, classification by grid analysis
Protocol: as §1, §2, §3, §4, §5, §6
as §5, with “10” for “1”, “graph. Using a 50% growth inhibition rate as an index of the inhibitive effect of a drug, cells were classified into 4 types by grid analysis.” for “graph.”

MDA-MB-157 (MSL) cells = details: Homo sapiens, 72 hours, read-out: inhibition rate (%) by trametinib, classification by grid analysis
Protocol: as §1, §2, §3, §4, §5, §6
as §5, with “10” for “1”, “graph. Using a 50% growth inhibition rate as an index of the inhibitive effect of a drug, cells were classified into 4 types by grid analysis.” for “graph.”

MDA-MB-231 (MSL) cells = details: Homo sapiens, 72 hours, read-out: inhibition rate (%) by trametinib, classification by grid analysis
Protocol: as §1, §2, §3, §4, §5, §6
as §5, with “10” for “1”, “graph. Using a 50% growth inhibition rate as an index of the inhibitive effect of a drug, cells were classified into 4 types by grid analysis.” for “graph.”

MDA-MB-468 (BL1) cells = details: Homo sapiens, 72 hours, read-out: inhibition rate (%) by trametinib, classification by grid analysis
Protocol: as §1, §2, §3, §4, §5, §6
as §5, with “10” for “1”, “graph. Using a 50% growth inhibition rate as an index of the inhibitive effect of a drug, cells were classified into 4 types by grid analysis.” for “graph.”

SUM185PE (LAR) cells = details: Homo sapiens, 72 hours, read-out: inhibition rate (%) by trametinib, classification by grid analysis
Protocol: as §1, §2, §3, §4, §5, §6
as §5, with “10” for “1”, “graph. Using a 50% growth inhibition rate as an index of the inhibitive effect of a drug, cells were classified into 4 types by grid analysis.” for “graph.”

[1] = 100 nM, index 12.5% growth inhibition rate
[2] = 1 μM, index 25% growth inhibition rate
[3] = 10 μM, index 50% growth inhibition rate

How did the inhibition at 0.1 µM (HCC1143 (BL1) cells; HCC1143, 100 nM, index 12.5% growth inhibition rate) turn out when `CC(=O)Nc1cccc(-n2c(=O)n(C3CC3)c(=O)c3c(Nc4ccc(I)cc4F)n(C)c(=O)c(C)c32)c1` [trametinib] was run?
Its inhibition at 0.1 µM is > 12.5%.

What about the inhibition at 1 µM (HCC1143 (BL1) cells; HCC1143, 1 μM, index 25% growth inhibition rate) of the same compound?
The inhibition at 1 µM was > 25%.

What about the inhibition at 10 µM (HCC1143 (BL1) cells; HCC1143, 10 μM, index 50% growth inhibition rate) of the same compound?
Its inhibition at 10 µM is > 50%.

What about the inhibition at 0.1 µM (HCC1187 (IM) cells; HCC1187, 100 nM, index 12.5% growth inhibition rate) of the same compound?
The inhibition at 0.1 µM was > 12.5%.

And the inhibition at 1 µM (HCC1187 (IM) cells; HCC1187, 1 μM, index 25% growth inhibition rate)?
Its inhibition at 1 µM is > 25%.

What about the inhibition at 10 µM (HCC1187 (IM) cells; HCC1187, 10 μM, index 50% growth inhibition rate) of the same compound?
The inhibition at 10 µM was > 50%.

What about the inhibition at 0.1 µM (HCC1395 (LAR) cells; HCC1395, 100 nM, index 12.5% growth inhibition rate) of the same compound?
Its inhibition at 0.1 µM is < 12.5%.

And the inhibition at 1 µM (HCC1395 (LAR) cells; HCC1395, 1 μM, index 25% growth inhibition rate)?
The inhibition at 1 µM was < 25%.

What about the inhibition at 10 µM (HCC1395 (LAR) cells; HCC1395, 10 μM, index 50% growth inhibition rate) of the same compound?
Its inhibition at 10 µM is < 50%.

And the inhibition at 0.1 µM (HCC1937 (BL1) cells; HCC1937, 100 nM, index 12.5% growth inhibition rate)?
Its inhibition at 0.1 µM is < 12.5%.

And the inhibition at 1 µM (HCC1937 (BL1) cells; HCC1937, 1 μM, index 25% growth inhibition rate)?
The inhibition at 1 µM was < 25%.

What about the inhibition at 10 µM (HCC1937 (BL1) cells; HCC1937, 10 μM, index 50% growth inhibition rate) of the same compound?
Its inhibition at 10 µM is < 50%.

And the inhibition at 0.1 µM (HCC70 (BL2) cells; HCC70, 100 nM, index 12.5% growth inhibition rate)?
Its inhibition at 0.1 µM is > 12.5%.

And the inhibition at 1 µM (HCC70 (BL2) cells; HCC70, 1 μM, index 25% growth inhibition rate)?
Its inhibition at 1 µM is > 25%.

And the inhibition at 10 µM (HCC70 (BL2) cells; HCC70, 10 μM, index 50% growth inhibition rate)?
The inhibition at 10 µM was > 50%.

And the inhibition at 0.1 µM (HS578T (MSL) cells; [1])?
The inhibition at 0.1 µM was < 12.5%.

And the inhibition at 1 µM (HS578T (MSL) cells; [2])?
Its inhibition at 1 µM is < 25%.

And the inhibition at 10 µM (HS578T (MSL) cells; [3])?
The inhibition at 10 µM was < 50%.

And the inhibition at 0.1 µM (MDA-MB-157 (MSL) cells; MDA-MB-157, 100 nM, index 12.5% growth inhibition rate)?
The inhibition at 0.1 µM was < 12.5%.

What about the inhibition at 1 µM (MDA-MB-157 (MSL) cells; MDA-MB-157, 1 μM, index 25% growth inhibition rate) of the same compound?
Its inhibition at 1 µM is < 25%.

And the inhibition at 10 µM (MDA-MB-157 (MSL) cells; MDA-MB-157, 10 μM, index 50% growth inhibition rate)?
Its inhibition at 10 µM is < 50%.

What about the inhibition at 0.1 µM (MDA-MB-231 (MSL) cells; MDA-MB-231, 100 nM, index 12.5% growth inhibition rate) of the same compound?
Its inhibition at 0.1 µM is > 12.5%.

What about the inhibition at 1 µM (MDA-MB-231 (MSL) cells; MDA-MB-231, 1 μM, index 25% growth inhibition rate) of the same compound?
The inhibition at 1 µM was > 25%.

What about the inhibition at 10 µM (MDA-MB-231 (MSL) cells; MDA-MB-231, 10 μM, index 50% growth inhibition rate) of the same compound?
Its inhibition at 10 µM is > 50%.

And the inhibition at 0.1 µM (MDA-MB-468 (BL1) cells; MDA-MB-468, 100 nM, index 12.5% growth inhibition rate)?
Its inhibition at 0.1 µM is < 12.5%.

And the inhibition at 1 µM (MDA-MB-468 (BL1) cells; MDA-MB-468, 1 μM, index 25% growth inhibition rate)?
The inhibition at 1 µM was < 25%.

What about the inhibition at 10 µM (MDA-MB-468 (BL1) cells; MDA-MB-468, 10 μM, index 50% growth inhibition rate) of the same compound?
The inhibition at 10 µM was < 50%.

And the inhibition at 0.1 µM (SUM185PE (LAR) cells; [1])?
The inhibition at 0.1 µM was < 12.5%.

What about the inhibition at 1 µM (SUM185PE (LAR) cells; [2]) of the same compound?
The inhibition at 1 µM was < 25%.

What about the inhibition at 10 µM (SUM185PE (LAR) cells; [3]) of the same compound?
Its inhibition at 10 µM is < 50%.
